In US10736898B2, “Positive allosteric modulators of the muscarinic acetylcholine receptor M4” (Vanderbilt University, priority 2017, dated 2020):
pEC50, pIC50: −log10 of the molar value.

Assays:
Human M4 = molecular target: T1, Human M4 (Homo sapiens, UniProt P08173); assay: mAChR M4 cell-based functional assay (calcium flux, potentiation of EC20 acetylcholine response)
T1 construct: expressed in transfected cells
T1 sequence (P08173 1-479): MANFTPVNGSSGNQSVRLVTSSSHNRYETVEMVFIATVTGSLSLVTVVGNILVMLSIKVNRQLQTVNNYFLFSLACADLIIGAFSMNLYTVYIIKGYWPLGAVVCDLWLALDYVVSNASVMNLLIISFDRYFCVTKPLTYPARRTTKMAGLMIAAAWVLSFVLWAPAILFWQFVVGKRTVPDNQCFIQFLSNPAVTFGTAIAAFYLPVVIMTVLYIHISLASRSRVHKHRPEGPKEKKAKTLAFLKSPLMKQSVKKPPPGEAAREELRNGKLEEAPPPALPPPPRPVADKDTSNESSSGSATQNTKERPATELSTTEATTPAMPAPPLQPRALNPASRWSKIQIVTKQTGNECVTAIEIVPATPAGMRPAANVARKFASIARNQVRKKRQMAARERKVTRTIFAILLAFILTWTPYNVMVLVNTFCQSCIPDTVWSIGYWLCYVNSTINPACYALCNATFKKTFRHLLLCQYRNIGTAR
Experimental: Human M4 cDNA, along with the chimeric G protein Gqi5, were transfected into Chinese hamster ovary (CHO-K1) cells purchased from the American Type Culture Collection using commercially available Lipofectamine 2000 transfection reagent (Dalby, B. et al., Methods (2004) 33(2), 95-103). hM4-Gqi5 cells were grown in Ham's F-12 medium containing 10% heat-inactivated fetal bovine serum (FBS), 20 mM HEPES, 50 μg/mL G418 sulfate (CAS #108321-42-2), and 500 μg/mL Hygromycin B. rM4-Gqi5 cells were grown in DMEM containing 10% heat-inactivated FBS, 20 mM HEPES, 400 μg/mL G418 sulfate, and 500 μg/mL Hygromycin B.
For high throughput measurement of agonist-evoked increases in intracellular calcium, CHO-K1 cells stably expressing muscarinic receptors were plated in growth medium lacking G418 sulfate and hygromycin at 15,000 cells/20 μL/well in Greiner 384-well black-walled, tissue culture (TC)-treated, clear-bottom plates (VWR). Cells were incubated overnight at 37° C. and 5% CO2. The next day, cells were washed using an ELX 405 (BioTek) with assay buffer; the final volume was then aspirated to 20 μL. […] Dye was removed by washing with the ELX 405 and the final volume was aspirated to 20 μL. Compound master plates were formatted in an 11 point concentration-response curve (CRC) format (1:3 dilutions) in 100% DMSO with a starting concentration of 10 mM using a BRAVO liquid handler (Agilent). Test compound CRCs were then transferred to daughter plates (240 nL) using the Echo acoustic plate reformatter (Labcyte, Sunnyvale, Calif.) and then diluted into assay buffer (40 μL) to a 2× stock using a Thermo Fisher Combi (Thermo Fisher Scientific, Waltham, Mass.).
Calcium flux was measured using the Functional Drug Screening System (FDSS) 6000 or 7000 (Hamamatsu Corporation, Tokyo, Japan) as an increase in the fluorescent static ratio. Compounds were applied to cells (20 μL, 2×) using the automated system of the FDSS at 2-4 seconds into the protocol and the data were collected at 1 Hz. At 144 seconds, 10 μL of an EC20 concentration of the muscarinic receptor agonist acetylcholine was added (5×), followed by the addition of 12 μL of an EC80 concentration of acetylcholine at the 230 second time point (5×). Agonist activity was analyzed as a concentration-dependent increase in calcium mobilization upon compound addition. Positive allosteric modulator activity was analyzed as a concentration-dependent increase in the EC20 acetylcholine response. […] Antagonist activity was analyzed as a concentration-dependent decrease in the EC80 acetylcholine response. Concentration-response curves were generated using a four-parameter logistical equation in XLFit curve fitting software (IDBS, Bridgewater, N.J.) for Excel (Microsoft, Redmond, Wash.) or Prism (GraphPad Software, Inc., San Diego, Calif.).

MDCK-MDR1 cells = assay: Bidirectional permeability/efflux in MDCK-MDR1 cells; format: in vitro ADME, canine; details: efflux ratio
Experimental: (§1) Compound 1 was evaluated in several well-known in vitro assays to investigate both metabolism and pharmacokinetics. Bidirectional permeability/efflux was determined in MDCK-MDR1 cells, which originate from transfection of Madin Darby canine kidney (MDCK) cells with the MDR1 gene. These assays were performed according to known methods as generally described in the following references: Conde-Ceide et al. ACS Med. Chem. Lett. 2015, 6, 716-720; Morris et al. J. Med. Chem. 2014, 57, 10192-10197; and Bubser et al. ACS Chem. Neurosci. 2014, 5, 920-942.

MDR1 = assay: as above; format: in vitro ADME, canine; details: dog
Experimental: as §1

Rat Fu (plasma) = format: in vitro ADME
Experimental: as §1

Human Fu (plasma) = format: in vitro ADME
Experimental: as §1

Dog CLint = format: in vitro ADME
Experimental: as §1

P450 3A4 = P450 3A4 (Homo sapiens, UniProt P08684); assay: P450 3A4 inhibition; format: in vitro ADME
Chain of P450 3A4 (P08684 whole entry): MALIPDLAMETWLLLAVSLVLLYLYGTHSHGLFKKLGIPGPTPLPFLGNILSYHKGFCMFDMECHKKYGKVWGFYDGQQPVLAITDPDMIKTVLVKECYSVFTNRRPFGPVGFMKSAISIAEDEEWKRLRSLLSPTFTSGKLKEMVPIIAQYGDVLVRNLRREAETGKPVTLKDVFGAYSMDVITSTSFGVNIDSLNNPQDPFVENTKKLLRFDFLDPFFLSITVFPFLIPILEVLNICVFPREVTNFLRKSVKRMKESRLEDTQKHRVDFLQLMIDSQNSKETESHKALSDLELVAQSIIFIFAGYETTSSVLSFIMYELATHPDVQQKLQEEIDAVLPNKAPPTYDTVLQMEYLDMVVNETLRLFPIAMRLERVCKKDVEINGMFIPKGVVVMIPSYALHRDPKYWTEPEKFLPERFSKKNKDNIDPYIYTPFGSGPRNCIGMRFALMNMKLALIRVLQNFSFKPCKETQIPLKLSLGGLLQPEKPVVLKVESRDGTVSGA
Experimental: as §1

P450 1A2 = molecular target: T2, P450 1A2 (Homo sapiens, UniProt P05177); assay: P450 1A2 inhibition; format: in vitro ADME
T2 sequence (P05177 1-516): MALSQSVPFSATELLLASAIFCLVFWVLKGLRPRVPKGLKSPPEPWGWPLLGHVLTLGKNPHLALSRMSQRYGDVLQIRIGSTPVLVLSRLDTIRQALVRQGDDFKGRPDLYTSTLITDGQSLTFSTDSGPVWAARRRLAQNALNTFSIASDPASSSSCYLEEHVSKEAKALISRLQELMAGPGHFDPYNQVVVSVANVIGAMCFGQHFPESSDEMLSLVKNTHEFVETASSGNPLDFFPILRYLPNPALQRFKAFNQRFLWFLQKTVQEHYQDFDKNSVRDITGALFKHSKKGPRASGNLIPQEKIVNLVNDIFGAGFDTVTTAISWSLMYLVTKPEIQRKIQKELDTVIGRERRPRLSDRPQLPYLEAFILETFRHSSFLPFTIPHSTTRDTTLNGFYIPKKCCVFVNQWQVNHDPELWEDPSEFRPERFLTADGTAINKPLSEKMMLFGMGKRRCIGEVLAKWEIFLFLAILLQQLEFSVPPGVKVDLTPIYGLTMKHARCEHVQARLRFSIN
Experimental: as §1

[1] = In vivo pharmacokinetics in dogs (IV and PO)
Experimental: (§2) Compound 1 was evaluated in several in vivo studies to investigate its metabolism and pharmacokinetics.
Dogs (male, Beagle, weighing approximately 8-15 kg, n=2) were dosed intravenously (0.5 mg/kg) via cephalic vein and orally (3 mg/kg) by gavage. Blood samples were collected from the jugular vein via needlestick. Blood samples were obtained at 0.083, 0.25, 0.5, 1, 2, 4, 6, 10, and 24 hours (IV) and 0.25, 0.5, 1, 2, 4, 6, 10, and 24 hours (PO) and plasma harvested for analysis. Sample preparation and bioanalysis was conducted as described above.

[2] = Rat brain:plasma distribution; format: in vivo
Experimental: as §2

Cc1nc(C)c2c(n1)sc1c(NCc3ccc(C(C)(C)O)cc3)ncnc12 [Compound 1, 2-(4-(((7,9-Dimethylthieno[2,3-d:4,5-d′]dipyrimidin-4-yl)amino)methyl)phenyl)propan-2-ol]
Emax at 30 µM (Human M4; % ACh maximum at 30 μM, human M4): 70.4%
pEC50 (Human M4; CHO-K1 cells with human M4 and Gqi5, increase in EC20 acetylcholine response): 5.90
MDCK-MDR1 ER (MDCK-MDR1 cells): 1.5 (Papp A→B:
Papp A→B (MDR1): 46.7 ×10⁻⁶ cm/s
fraction unbound (Rat Fu (plasma)): 0.024
fraction unbound (Human Fu (plasma)): 0.014
CLint scaled (Dog CLint): 17 mL/min/kg
pIC50 (P450 3A4): 4.77
pIC50 (P450 1A2): 4.64
Dog oral F ([1]; 3 mg/kg PO): 28%
half-life ([1]; male, Beagle, dog, plasma, read-out: Dog Elim. t1/2 (converted)): 2.4 h
clearance ([1]; male, Beagle, plasma, dog, IV 0.5 mg/kg, read-out: Dog CLp): 24 mL/min/kg
Vd ([1]; male, Beagle, plasma, dog, IV 0.5 mg/kg, read-out: Dog Vss): 2.3 L/kg
Kp [2]: 0.74
Kp uu ([2]; unbound): 0.5
